Holding throughout (assay type): biochemical
In assay [1] the target is T1, recombinant human 17β-HSD1 (Homo sapiens, UniProt P14061).
T1 construct: made in house; host or cells: Sd9 (Sf9) insect cells, baculovirus (Bac to Bac Expression System)
T1 sequence (P14061 1-328): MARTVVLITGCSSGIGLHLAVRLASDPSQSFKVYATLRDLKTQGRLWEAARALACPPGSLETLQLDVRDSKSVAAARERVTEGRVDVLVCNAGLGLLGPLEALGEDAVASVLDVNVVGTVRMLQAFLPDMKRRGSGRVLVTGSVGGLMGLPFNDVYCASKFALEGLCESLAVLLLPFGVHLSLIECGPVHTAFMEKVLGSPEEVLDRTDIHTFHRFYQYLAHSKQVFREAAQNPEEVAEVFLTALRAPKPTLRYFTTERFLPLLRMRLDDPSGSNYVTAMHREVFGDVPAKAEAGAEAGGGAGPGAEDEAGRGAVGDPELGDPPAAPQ
The assay can be described thus: Inhibition of recombinant human 17β-HSD1. To be noted: inhibitor 100 nM; 30 nM estrone, 1 mM NADPH, 30 min RT. As to the method:
17β-HSD1 production and isolation: Recombinant baculovirus was generated by the “Bac to Bac Expression System” (Invitrogen). Recombinant bacmid was transfected to Sd9 insect cells using “Cellfectin Reagent” (Invitrogen). 60 h later cells were harvested; the microsomal fraction was isolated as described by Puranen, T. J., Poutanen, M. H., Peltoketo, H. E., Vihko, P. T. and Vihko, R. K. (1994) Site-directed mutagenesis of the putative active site of human 17 β-hydroxysteroid dehydrogenase type 1. Biochem. J. 304: 289-293. Aliquots were stored frozen until determination of enzymatic activity.
Assay—Inhibition of recombinant human 17β-HSD1: Recombinant protein (1 μg/ml) was incubated in 20 mM KH2PO4 pH 7.4 with 30 nM estrone (including 800 000 cpm/ml of ^3H-estrone) and 1 mM NADPH for 30 min at RT, in the presence of the potential inhibitor at concentrations 1 μM or 0.1 μM. Inhibitor stock solutions were prepared in DMSO. Final concentration of DMSO was adjusted to 1% in all samples. The enzyme reaction was stopped by addition of 10% trichloroacetic acid (final concentration). Samples were centrifuged in a microtiter plate at 4000 rpm for 10 min. Supernatants were applied to reverse phase HPLC on a Waters Symmetry C18 column, equipped with a Waters Sentry Guard column. Isocratic HPLC runs were performed at RT at a flow rate of 1 ml/min in acetonitrile:water 48:52 as running solvent. Radioactivity was monitored in the eluate by a Scintillation Analyzer. Total radioactivity for estrone and estradiol were determined in each sample and percent conversion of estrone to estradiol was calculated according to the following formula:
(§1) [formula] Percent inhibition was calculated flowingly: % inhibition=100−% conversion

For assay [2], the target named is T2, recombinant human 17β-HSD2 (Homo sapiens, UniProt P37059).
T2 construct: made in house; host or cells: Sd9 (Sf9) insect cells, baculovirus (Bac to Bac Expression System)
T2 sequence (P37059 1-387): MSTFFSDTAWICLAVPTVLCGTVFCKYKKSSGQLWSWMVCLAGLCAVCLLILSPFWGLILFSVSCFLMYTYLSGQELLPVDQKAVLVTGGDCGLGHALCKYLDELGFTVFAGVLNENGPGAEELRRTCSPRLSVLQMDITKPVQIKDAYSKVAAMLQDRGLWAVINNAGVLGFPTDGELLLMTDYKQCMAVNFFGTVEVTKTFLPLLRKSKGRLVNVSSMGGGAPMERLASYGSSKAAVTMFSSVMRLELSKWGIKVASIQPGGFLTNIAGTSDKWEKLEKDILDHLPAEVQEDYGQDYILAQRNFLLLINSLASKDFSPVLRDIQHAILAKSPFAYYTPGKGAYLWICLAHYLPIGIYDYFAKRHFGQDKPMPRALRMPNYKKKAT
Description: Inhibition of recombinant human 17β-HSD2. To be noted: inhibitor 1 μM; 50 nM estradiol, 1 mM NADH, 30 min RT. How it is done:
17β-HSD2 production and isolation: Similarly to 17β-HSD1 the Recombinant baculovirus was generated by the “Bac to Bac Expression System” (Invitrogen). Recombinant bacmid was transfected to Sd9 insect cells using “Cellfectin Reagent” (Invitrogen). 60 h later cells were harvested and supernatant were fractionated by the following protocol: • cells were dissolved into 40 ml of A-buffer (40 mM TRIS, pH 8.0, 20% glycerol, 20 μM NAD, 0.4 mM PMSF, 150 mM NaCl, 0.5% dodecyl-β-maltoside+protease inhibitor cocktail) • cells were sonicated • lysate was incubated on ice for 15 min • lysate was centrifuged 5000 rpm 15 min, +4° C. • centrifugation of the supernatant 180 000 g 30 min, +4° C. • pellet was dissolved into 8 ml of A-buffer • not resuspended material was removed by centrifugation 5000 rpm min, +4° C. • the clear supernatant was divided into 100 μl aliquots and were stored frozen until determination of enzymatic activity.
The amount of 17β-HSD2 was analysed by immunoblotting and total protein concentration of each extract batch was determined.
Assay—Inhibition of recombinant human 17β-HSD2: Recombinant protein (4 μg/ml) was incubated in 20 mM KH2PO4 pH 8.5 with 50 nM estradiol (including 800 000 cpm/ml of ^3H-estradiol) and 1 mM NADH for 30 min at RT, in the presence of the potential inhibitor at concentrations 1 μM or 0.1 μM. Inhibitor stock solutions were prepared in DMSO. Final concentration of DMSO was adjusted to 1% in all samples. The enzyme reaction was stopped by addition of 10% trichloroacetic acid (final concentration). Samples were centrifuged in a microtiter plate at 4000 rpm for 10 min. Supernatants were applied to reverse phase HPLC on a Waters Symmetry C18 column, equipped with a Waters Sentry Guard column. Isocratic HPLC runs were performed at RT at a flow rate of 1 ml/min in acetonitrile:water 48:52 as running solvent. Radioactivity was monitored in the eluate by a Scintillation Analyzer. Total radioactivity for estrone and estradiol were determined in each sample and percent conversion of estradiol to estrone was calculated according to the following formula:
as §1

Assay [3] deals with HSD1 enzyme that is expressed in rabbit placenta tissue. The assay can be described thus: Inhibition of E1 to E2 conversion in rabbit placenta tissue homogenate. To be noted: inhibitor 100 nM, 30 nM estrone, 30 min. How it is done: The assay is based on an enzymatic reaction where HSD1 enzyme that is expressed in rabbit placenta tissue converts its natural substance estrone (E1) to estradiol (E2) in the presence of a co-factor β-NADPH.
Homogenization of rabbit placenta tissue: Weight a piece of the frozen tissue into a Precellys ck28 bead tube. Add buffer solution (20 mM KH2PO4 with 1 mM EDTA, pH 7,4) in 1:2 ratio (e.g. 300 mg of tissue:600 μl reaction buffer solution). Insert the bead tubes to homogenizer and homogenize 2×30 s. 6000 rpm. Centrifugated 5 min., 2600 rpm at +4° C. and collect supernatant. Aliquots of homogenate are stored in −80° C.
Assay—Inhibition of E1 to E2 conversion in rabbit placenta tissue: The reaction takes place in a buffer solution (20 mM KH2PO4 with 1 mM EDTA, pH 7,4), including appropriate amount of rabbit placenta homogenate, co-factor (1 mM β-NADPH), Substrate (30 nM estrone), labelled substrate as tracer (5 nM [^3H]-estrone). During a 30-minute incubation part of the estrone is converted to estradiol. The reaction is stopped by lowering the pH to 1 with 10% trichloro acetic acid (TCA). The substrate and conversion products are analyzed by HPLC and a Scintillation counter analyzer. Total radioactivity for estrone and estradiol were determined in each sample and percent conversion of estrone to estradiol was calculated according to the following formula:
Percent inhibition was calculated flowingly: % inhibition=100−% conversion.

From US20240309043A1, “THERAPEUTICALLY ACTIVE STEROIDAL DERIVATIVES” (Organon R&D Finland Ltd., priority 2017, published 2024) come the findings set out here.

As for `C[C@]12CCC3c4cccc(F)c4CCC3C1[C@H](CCC(=O)NC1COC1)C/C2=N\O` (stereo partly drawn) [Compound 10, 3-((13S,15R,E)-4-fluoro-17-(hydroxyimino)-13-methyl-7,8,9,11,12,13,14,15,16,17-decahydro-6H-cyclopenta[a]phenanthren-15-yl)-N-(oxetan-3-yl)propanamide], in assay [1], the inhibition (as a rule, the drop in the measured response relative to a control, in per cent) at 0.1 µM came to 30%. Also, the inhibition at 1 µM in assay [2] was found to be 5%. For the same compound, the “Rabbit placenta inhibition % @100 nM” value in assay [3] is 18%.

Take `CN(C(=O)CC[C@@H]1C/C(=N\O)[C@@]2(C)CCC3c4cccc(F)c4CCC3C12)C1COC1` (stereo partly drawn) [Compound 12, 3-((13S,15R,E)-4-fluoro-17-(hydroxyimino)-13-methyl-7,8,9,11,12,13,14,15,16,17-decahydro-6H-cyclopenta[a]phenanthren-15-yl)-N-methyl-(oxetan-3-yl)propanamide]: the inhibition at 0.1 µM in assay [1] was 73%. The inhibition at 1 µM in assay [2] stood at 2%.

Consider `C[C@]12CCC3c4cccc(F)c4CCC3C1[C@H](CCC(=O)N1CCCC1)C/C2=N\O` (stereo partly drawn) [Compound 14, 3-((13S,15R,E)-4-fluoro-17-(hydroxyimino)-13-methyl-7,8,9,11,12,13,14,15,16,17-decahydro-6H-cyclopenta[a]phenanthren-15-yl)-1-(pyrrolidin-1-yl)propan-1-one], for which, in assay [1], the inhibition at 0.1 µM stood at 53%. For the same compound, the inhibition at 1 µM in assay [2] is 4%. Also, the “Rabbit placenta inhibition % @100 nM” value in assay [3] turned out to be 14%.

Regarding `Cc1ccc(NC(=O)CC[C@@H]2C/C(=N\O)[C@@]3(C)CCC4c5cccc(F)c5CCC4C23)nn1` (stereo partly drawn) [Compound 16, 3-((13S,15R,E)-4-fluoro-17-(hydroxyimino)-13-methyl-7,8,9,11,12,13,14,15,16,17-decahydro-6H-cyclopenta[a]phenanthren-15-yl)-N-(6-methylpyridazin-3-yl) propanamide], the inhibition at 0.1 µM in assay [1] worked out at 79%. Moreover, the inhibition at 1 µM in assay [2] was 9%. Moreover, in assay [3], the “Rabbit placenta inhibition % @100 nM” value came to 81%.

`C[C@]12CCC3c4ccc(F)cc4CCC3C1[C@H](CCC(=O)Nc1cccnn1)C/C2=N\O` (stereo partly drawn) [Compound 34, 3-((13S,15R,E)-3-fluoro-17-(hydroxyimino)-13-methyl-7,8,9,11,12,13,14,15,16,17-decahydro-6H-cyclopenta[a]phenanthren-15-yl)-N-(pyridazin-3-yl)propanamide]: the inhibition at 0.1 µM in assay [1] amounted to 23%. Further, the inhibition at 1 µM in assay [2] was 9%.

In the case of `C[C@]12CCC3c4ccc(F)cc4CCC3C1[C@H](CCC(=O)Nc1nncs1)C/C2=N\O` (stereo partly drawn) [Compound 38, 3-((13S,15R,E)-3-fluoro-17-(hydroxyimino)-13-methyl-7,8,9,11,12,13,14,15,16,17-decahydro-6H-cyclopenta[a]phenanthren-15-yl)-N-(1,3,4-thiadiazol-2-yl)propanamide], the inhibition at 0.1 µM in assay [1] came to 21%. Also, in assay [2], the inhibition at 1 µM worked out at 3%.

As for `C[C@]12CCC3c4cccc(F)c4CCC3C1[C@H](CCC(=O)Nc1ccccn1)C/C2=N\O` (stereo partly drawn) [Compound 138, 3-((13S,15R,E)-4-fluoro-17-(hydroxyimino)-13-methyl-7,8,9,11,12,13,14,15,16,17-decahydro-6H-cyclopenta[a]phenanthren-15-yl)-N-(pyridin-2-yl)propanamide], the inhibition at 0.1 µM in assay [1] turned out to be 89%. The “Rabbit placenta inhibition % @100 nM” value in assay [3] is 36%.

On to `C[C@]12CCC3c4cccc(F)c4CCC3C1[C@H](CCC(=O)Nc1cc3c([nH]c1=O)CCCC3)C/C2=N\O` (stereo partly drawn) [Compound 178, 3-((13S,15R,E)-4-fluoro-17-(hydroxyimino)-13-methyl-7,8,9,11,12,13,14,15,16,17-decahydro-6H-cyclopenta[a]phenanthren-15-yl)-N-(2-oxo-12,5,6,7,8-hexahydroguinolin-3-yl)propanamide], for which the inhibition at 0.1 µM in assay [1] was determined as 95%. The inhibition at 1 µM in assay [2] is 9%.
